# Laboratory results reported in ChEMBL document CHEMBL1201862, “PubChem BioAssay data set” (2004).
#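 96-well plates; 48 h exposure; 5 concentrations. Endpoints by linear interpolation between flanking doses. Not reached: highest tested concentration assigned. Here, GI50 denotes the concentration required for 50% inhibition of growth.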 The source made the active and inactive calls. Cut-off read from the data, not from the text of the source: active = GI50 up to about 1.1 µM and inactive = higher.
# Assays:
# Test in all cases: NCI anticancer screen, dose series, 48 h
# NCI-H23 = system: NCI-H23
# SF-295 = system: SF-295
# SF-539 = system: SF-539
# SK-MEL-2 = system: SK-MEL-2
# CCRF-CEM = system: CCRF-CEM
# UO-31 = system: UO-31
# SW-620 = system: SW-620
# KM12 = system: KM12
# SN12C = system: SN12C
# OVCAR-8 = system: OVCAR-8
# T47D = system: T47D
# RXF 393 = system: RXF 393
# OVCAR-3 = system: OVCAR-3
# Hs-578T = system: Hs-578T
# NCI-H460 = system: NCI-H460
# NCI/ADR-RES = system: NCI/ADR-RES
# DU-145 = system: DU-145
# BT-549 = system: BT-549
# CAKI-1 = system: CAKI-1
# IGROV-1 = system: IGROV-1
# SNB-19 = system: SNB-19
# ACHN = system: ACHN
# MCF7 = system: MCF7
# HOP-62 = system: HOP-62
# PC-3 = system: PC-3
# HT-29 = system: HT-29
# 786-0 = system: 786-0
# TK-10 = system: TK-10
# NCI-H226 = system: NCI-H226
# UACC-257 = system: UACC-257
# HCC 2998 = system: HCC 2998
# A549 = system: A549
# HCT-116 = system: HCT-116
# SR = system: SR
# MOLT-4 = system: MOLT-4
# HL-60 = system: HL-60
# A498 = system: A498
# SF-268 = system: SF-268
# MDA-MB-231 = system: MDA-MB-231
# SK-MEL-5 = system: SK-MEL-5
# NCI-H522 = system: NCI-H522
# LOX IMVI = system: LOX IMVI
# MDA-N = system: MDA-N
# HCT-15 = system: HCT-15
# EKVX = system: EKVX
# SNB-75 = system: SNB-75
# M14 = system: M14
# COLO 205 = system: COLO 205
# MDA-MB-435 = system: MDA-MB-435
# OVCAR-5 = system: OVCAR-5
# UACC-62 = system: UACC-62
# RPMI-8226 = system: RPMI-8226
# K562 = system: K562
# Malme-3M = system: Malme-3M
# OVCAR-4 = system: OVCAR-4
# SK-MEL-28 = system: SK-MEL-28
# U-251 = system: U-251
# SK-OV-3 = system: SK-OV-3
smiles,measurement,setting,value
CC(=O)Nc1ccc2c(C)c3c4ccccc4n(C)c3nc2n1,GI50,NCI-H23,19.3 µM (inactive)
same,GI50,SF-295,19.9 µM (inactive)
same,GI50,SF-539,29.3 µM (inactive)
same,GI50,SK-MEL-2,20.6 µM (inactive)
same,GI50,CCRF-CEM,18.7 µM (inactive)
same,GI50,UO-31,11.4 µM (inactive)
same,GI50,SW-620,13.2 µM (inactive)
same,GI50,KM12,11.9 µM (inactive)
same,GI50,SN12C,16.4 µM (inactive)
same,GI50,OVCAR-8,17.9 µM (inactive)
same,GI50,T47D,18.4 µM (inactive)
same,GI50,RXF 393,16.1 µM (inactive)
same,GI50,OVCAR-3,26.1 µM (inactive)
same,GI50,Hs-578T,16.3 µM (inactive)
same,GI50,NCI-H460,2.92 µM (inactive)
same,GI50,NCI/ADR-RES,22.3 µM (inactive)
same,GI50,DU-145,21 µM (inactive)
same,GI50,BT-549,31.3 µM (inactive)
same,GI50,CAKI-1,12.2 µM (inactive)
same,GI50,IGROV-1,28.1 µM (inactive)
same,GI50,SNB-19,39.1 µM (inactive)
same,GI50,ACHN,8.55 µM (inactive)
same,GI50,MCF7,20.8 µM (inactive)
same,GI50,HOP-62,14.3 µM (inactive)
same,GI50,PC-3,18.9 µM (inactive)
same,GI50,HT-29,14.8 µM (inactive)
same,GI50,786-0,8.17 µM (inactive)
same,GI50,TK-10,32.9 µM (inactive)
same,GI50,NCI-H226,29.6 µM (inactive)
same,GI50,UACC-257,26.9 µM (inactive)
same,GI50,HCC 2998,16.4 µM (inactive)
same,GI50,A549,16 µM (inactive)
same,GI50,HCT-116,7.1 µM (inactive)
same,GI50,SR,10.6 µM (inactive)
same,GI50,MOLT-4,5.83 µM (inactive)
same,GI50,HL-60,12.9 µM (inactive)
same,GI50,A498,18.1 µM (inactive)
same,GI50,SF-268,17.8 µM (inactive)
same,GI50,MDA-MB-231,18.7 µM (inactive)
same,GI50,SK-MEL-5,9.29 µM (inactive)
same,GI50,NCI-H522,16.1 µM (inactive)
same,GI50,LOX IMVI,12.6 µM (inactive)
same,GI50,MDA-N,17.1 µM (inactive)
same,GI50,HCT-15,11.4 µM
same,GI50,EKVX,29 µM (inactive)
same,GI50,SNB-75,14.4 µM (inactive)
same,GI50,M14,20.7 µM (inactive)
same,GI50,COLO 205,12.7 µM (inactive)
same,GI50,MDA-MB-435,18.7 µM (inactive)
same,GI50,OVCAR-5,18.6 µM (inactive)
same,GI50,UACC-62,20.1 µM (inactive)
O=C(c1ccccc1)N1N=C(C(F)(F)F)CC1(O)C(F)(F)F (stereo not given),GI50,RPMI-8226,> 100 µM (inactive)
same,GI50,NCI-H23,> 100 µM (inactive)
same,GI50,K562,> 100 µM (inactive)
same,GI50,SF-295,> 100 µM (inactive)
same,GI50,SF-539,> 100 µM (inactive)
same,GI50,SK-MEL-2,> 100 µM (inactive)
same,GI50,CCRF-CEM,> 100 µM (inactive)
same,GI50,UO-31,> 100 µM (inactive)
same,GI50,SW-620,> 100 µM (inactive)
same,GI50,KM12,> 100 µM (inactive)
same,GI50,SN12C,> 100 µM (inactive)
same,GI50,OVCAR-8,> 100 µM (inactive)
same,GI50,T47D,> 100 µM (inactive)
same,GI50,OVCAR-3,> 100 µM (inactive)
same,GI50,Hs-578T,> 100 µM (inactive)
same,GI50,Malme-3M,> 100 µM (inactive)
same,GI50,NCI-H460,> 100 µM (inactive)
same,GI50,NCI/ADR-RES,> 100 µM (inactive)
same,GI50,DU-145,> 100 µM (inactive)
same,GI50,OVCAR-4,> 100 µM (inactive)
same,GI50,BT-549,> 100 µM (inactive)
same,GI50,SNB-19,> 100 µM (inactive)
same,GI50,ACHN,> 100 µM (inactive)
same,GI50,MCF7,> 100 µM (inactive)
same,GI50,SK-MEL-28,> 100 µM (inactive)
same,GI50,HOP-62,> 100 µM (inactive)
same,GI50,PC-3,> 100 µM (inactive)
same,GI50,HT-29,> 100 µM (inactive)
same,GI50,786-0,> 100 µM (inactive)
same,GI50,TK-10,> 100 µM (inactive)
same,GI50,NCI-H226,> 100 µM (inactive)
same,GI50,U-251,> 100 µM (inactive)
same,GI50,UACC-257,> 100 µM (inactive)
same,GI50,HCC 2998,> 100 µM (inactive)
same,GI50,A549,> 100 µM (inactive)
same,GI50,HCT-116,> 100 µM (inactive)
same,GI50,SR,> 100 µM (inactive)
same,GI50,MOLT-4,> 100 µM (inactive)
same,GI50,HL-60,> 100 µM (inactive)
same,GI50,A498,> 100 µM (inactive)
same,GI50,SF-268,> 100 µM (inactive)
same,GI50,MDA-MB-231,> 100 µM (inactive)
same,GI50,NCI-H522,> 100 µM (inactive)
same,GI50,LOX IMVI,> 100 µM (inactive)
same,GI50,MDA-N,> 100 µM (inactive)
same,GI50,HCT-15,> 100 µM
same,GI50,EKVX,> 100 µM (inactive)
same,GI50,SNB-75,> 100 µM (inactive)
same,GI50,M14,> 100 µM (inactive)
same,GI50,COLO 205,> 100 µM (inactive)
same,GI50,MDA-MB-435,> 100 µM (inactive)
same,GI50,OVCAR-5,> 100 µM (inactive)
O=c1[nH]nc(Cc2ccccc2)n1CCCl,GI50,RPMI-8226,> 100 µM (inactive)
same,GI50,NCI-H23,> 100 µM (inactive)
same,GI50,K562,> 100 µM (inactive)
same,GI50,SF-295,> 100 µM (inactive)
same,GI50,SF-539,> 100 µM (inactive)
same,GI50,SK-MEL-2,> 100 µM (inactive)
same,GI50,CCRF-CEM,> 100 µM (inactive)
same,GI50,UO-31,> 100 µM (inactive)
same,GI50,SW-620,> 100 µM (inactive)
same,GI50,KM12,> 100 µM (inactive)
same,GI50,SN12C,> 100 µM (inactive)
same,GI50,OVCAR-8,> 100 µM (inactive)
same,GI50,T47D,> 100 µM (inactive)
same,GI50,RXF 393,90.8 µM (inactive)
same,GI50,OVCAR-3,> 100 µM (inactive)
same,GI50,Hs-578T,> 100 µM (inactive)
same,GI50,Malme-3M,> 100 µM (inactive)
same,GI50,NCI-H460,> 100 µM (inactive)
same,GI50,NCI/ADR-RES,> 100 µM (inactive)
same,GI50,DU-145,> 100 µM (inactive)
same,GI50,OVCAR-4,> 100 µM (inactive)
same,GI50,BT-549,> 100 µM (inactive)
same,GI50,CAKI-1,> 100 µM (inactive)
same,GI50,IGROV-1,> 100 µM (inactive)
same,GI50,SNB-19,> 100 µM (inactive)
same,GI50,MCF7,> 100 µM (inactive)
same,GI50,SK-MEL-28,> 100 µM (inactive)
same,GI50,HOP-62,> 100 µM (inactive)
same,GI50,PC-3,> 100 µM (inactive)
same,GI50,HT-29,> 100 µM (inactive)
same,GI50,786-0,> 100 µM (inactive)
same,GI50,NCI-H226,> 100 µM (inactive)
same,GI50,U-251,> 100 µM (inactive)
same,GI50,HCC 2998,> 100 µM (inactive)
same,GI50,HCT-116,> 100 µM (inactive)
same,GI50,SR,> 100 µM (inactive)
same,GI50,MOLT-4,> 100 µM (inactive)
same,GI50,HL-60,> 100 µM (inactive)
same,GI50,A498,> 100 µM (inactive)
same,GI50,SF-268,> 100 µM (inactive)
same,GI50,MDA-MB-231,> 100 µM (inactive)
same,GI50,SK-OV-3,> 100 µM (inactive)
same,GI50,LOX IMVI,> 100 µM (inactive)
same,GI50,MDA-N,> 100 µM (inactive)
same,GI50,HCT-15,> 100 µM
same,GI50,EKVX,> 100 µM (inactive)
same,GI50,SNB-75,> 100 µM (inactive)
same,GI50,M14,> 100 µM (inactive)
same,GI50,COLO 205,> 100 µM (inactive)
same,GI50,MDA-MB-435,> 100 µM (inactive)
same,GI50,OVCAR-5,> 100 µM (inactive)
same,GI50,UACC-62,> 100 µM (inactive)
